Experimental data from patent publication US8299048B2, “Hexahydrocyclopentyl[f]indazole sulfonamides and derivatives thereof as selective glucocorticoid receptor modulators” (Merck Sharp & Dohme Corp., priority 2008, dated 2012).

Target: T1, human GR (Homo sapiens, UniProt P04150)
T1 sequence (P04150 1-777): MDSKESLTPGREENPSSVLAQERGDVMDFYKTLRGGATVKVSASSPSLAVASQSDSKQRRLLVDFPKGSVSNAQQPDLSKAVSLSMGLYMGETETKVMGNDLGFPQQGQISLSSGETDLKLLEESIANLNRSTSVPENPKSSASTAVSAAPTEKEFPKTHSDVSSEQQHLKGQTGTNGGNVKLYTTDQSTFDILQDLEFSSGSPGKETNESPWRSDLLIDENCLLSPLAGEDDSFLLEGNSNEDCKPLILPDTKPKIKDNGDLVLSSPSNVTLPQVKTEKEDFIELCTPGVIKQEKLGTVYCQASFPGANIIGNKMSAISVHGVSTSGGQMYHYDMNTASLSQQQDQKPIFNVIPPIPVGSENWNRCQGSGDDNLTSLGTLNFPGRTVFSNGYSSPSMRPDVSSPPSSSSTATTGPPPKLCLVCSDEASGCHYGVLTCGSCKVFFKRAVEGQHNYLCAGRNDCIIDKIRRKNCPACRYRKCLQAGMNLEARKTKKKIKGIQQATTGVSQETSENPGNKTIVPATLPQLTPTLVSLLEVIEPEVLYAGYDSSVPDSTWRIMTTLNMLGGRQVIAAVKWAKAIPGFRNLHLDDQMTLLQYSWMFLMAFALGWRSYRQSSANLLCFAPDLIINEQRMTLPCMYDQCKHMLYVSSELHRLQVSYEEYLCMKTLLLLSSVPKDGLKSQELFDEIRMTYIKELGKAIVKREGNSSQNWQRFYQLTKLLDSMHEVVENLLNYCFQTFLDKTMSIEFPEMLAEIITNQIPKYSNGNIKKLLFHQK
Test: Trans-Activation Modulation of Glucocorticoid Receptor (GRAMMER), MMTV-LUC reporter, agonist mode
Format: cell-based
Design: endogenous in cells
Conditions: for Emax: A549, A549 cells, maximum activity, read-out: Transactivation A549 Cells GRAMMER Emax; for EC50: A549 cells, inflection point, read-out: Transactivation A549 Cells GRAMMER IP
Method in brief: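 Readout is luciferase from a modified MMTV LTR promoter after 24 h compound exposure alongside 10 nM dexamethasone (100% activity reference), DMSO ≤1%.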

| SMILES | Emax [%] | EC50 [nM] |
| --- | --- | --- |
| COC(=O)c1ccccc1S(=O)(=O)N(C[C@H]1CCC2=Cc3c(cnn3-c3ccc(F)cc3)C[C@@]21C)C[C@@H](C)O [Example 186, methyl 2-({{[(4αR,5S)-1-(4-fluorophenyl)-4α-methyl-1,4,4α,5,6,7-hexahydrocyclopenta[f]indazol-5-yl]methyl}[(2R)-2-hydroxypropyl]amino}sulfonyl)benzoate] | 35.8 | 509 |
| COC(=O)c1ccccc1S(=O)(=O)N(C[C@H]1CCC2=Cc3c(cnn3-c3ccc(F)cc3)C[C@@]21C)C[C@H](C)O [Example 187, methyl 2-({{[(4αR,5S)-1-(4-fluorophenyl)-4α-methyl-1,4,4α,5,6,7-hexahydrocyclopenta[f]indazol-5-yl]methyl}[(2S)-2-hydroxypropyl]amino}sulfonyl)benzoate] | 35.8 | 357 |
| COC(=O)c1ccccc1CS(=O)(=O)N(CCc1ccccc1F)C[C@H]1CCC2=Cc3c(cnn3-c3ccc(F)cc3)C[C@@]21C [Example 188, methyl 2-{[([2-(2-fluorophenyl)ethyl]{[(4αR,5S)-1-(4-fluorophenyl)-4α-methyl-1,4,4α,5,6,7-hexahydrocyclopenta[f]indazol-5-yl]methyl}amino)sulfonyl]methyl}benzoate] | 30.4 | 236 |
| COC(=O)c1ccccc1S(=O)(=O)N(CCc1ccccc1F)C[C@H]1CCC2=Cc3c(cnn3-c3ccc(F)cc3)C[C@@]21C [Example 189, methyl 2-[([2-(2-fluorophenyl)ethyl]{[(4αR,5S)-1-(4-fluorophenyl)-4α-methyl-1,4,4α,5,6,7-hexahydrocyclopenta[f]indazol-5-yl]methyl}amino)sulfonyl]benzoate] | 65.3 | 152 |
| C[C@]12Cc3cnn(-c4ccc(F)cc4)c3C=C1CC[C@@H]2CN(CCc1ccccc1F)S(=O)(=O)Cc1ccccc1C(N)=O [Example 190, 2-{[([2-(2-fluorophenyl)ethyl]{[(4αR,5S)-1-(4-fluorophenyl)-4α-methyl-1,4,4α,5,6,7-hexahydrocyclopenta[f]indazol-5-yl]methyl}amino)sulfonyl]methyl}benzamide] | 65.1 | 424 |
| C[C@]12Cc3cnn(-c4ccc(F)cc4)c3C=C1CC[C@@H]2CN(CC1CCCO1)S(=O)(=O)c1ccc(C(N)=O)cc1 (stereo partly drawn) [Example 191, 4-{[{[(4αR,5S)-1-(4-fluorophenyl)-4α-methyl-1,4,4α,5,6,7-hexahydrocyclopenta[f]indazol-5-yl]methyl}(tetrahydrofuran-2-ylmethyl)amino]sulfonyl}benzamide] | 27.1 | 338 |
| C[C@]12Cc3cnn(-c4ccc(F)cc4)c3C=C1CC[C@@H]2CN(Cc1ccccc1F)S(=O)(=O)c1cccc(C(N)=O)c1 [Example 192, 3-[((2-fluorobenzyl){[(4αR,5S)-1-(4-fluorophenyl)-4α-methyl-1,4,4α,5,6,7-hexahydrocyclopenta[f]indazol-5-yl]methyl}amino)sulfonyl]benzamide] | 4.3 | 170 |

More lines, now with the values ahead:

| Emax [%] | EC50 [nM] | SMILES |
| --- | --- | --- |
| 67.3 | 169 | CN(C[C@H]1CCC2=Cc3c(cnn3-c3ccc(F)cc3)C[C@@]21C)S(=O)(=O)CC(F)(F)F [Example 177, 2,2,2-trifluoro-N-{[(4αR,5S)-1-(4-fluorophenyl)-4α-methyl-1,4,4α,5,6,7-hexahydrocyclopenta[f]indazol-5-yl]methyl}-N-methylethanesulfonamide] |
| 55 | 110 | CCN(C[C@H]1CCC2=Cc3c(cnn3-c3ccc(F)cc3)C[C@@]21C)S(=O)(=O)c1c(C)noc1C [Example 178, N-ethyl-N-{[(4αR,5S)-1-(4-fluorophenyl)-4α-methyl-1,4,4α,5,6,7-hexahydrocyclopenta[f]indazol-5-yl]methyl}-3,5-dimethylisoxazole-4-sulfonamide] |
| 65.4 | 277 | CCN(C[C@H]1CCC2=Cc3c(cnn3-c3ccc(F)cc3)C[C@@]21C)S(=O)(=O)CC(F)(F)F [Example 179, N-ethyl-2,2,2-trifluoro-N-{[(4αR,5S)-1-(4-fluorophenyl)-4α-methyl-1,4,4α,5,6,7-hexahydrocyclopenta[f]indazol-5-yl]methyl}ethanesulfonamide] |
| 38.1 | 247 | COC(=O)c1ccccc1CS(=O)(=O)N(C[C@H]1CCC2=Cc3c(cnn3-c3ccc(F)cc3)C[C@@]21C)C[C@@H](C)O [Example 180, methyl 2-[({{[(4αR,5S)-1-(4-fluorophenyl)-4α-methyl-1,4,4α,5,6,7-hexahydrocyclopenta[f]indazol-5-yl]methyl}[(2R)-2-hydroxypropyl]amino}sulfonyl)methyl]benzoatee] |
| 54.6 | 364 | COC(=O)c1ccccc1CS(=O)(=O)N(C[C@H]1CCC2=Cc3c(cnn3-c3ccc(F)cc3)C[C@@]21C)C[C@H](C)O [Example 181, methyl 2-[({{[(4αR,5S)-1-(4-fluorophenyl)-4α-methyl-1,4,4α,5,6,7-hexahydrocyclopenta[f]indazol-5-yl]methyl}[(2S)-2-hydroxypropyl]amino}sulfonyl)methyl]benzoate] |
| 8 | 4760 | C[C@@H](O)CN(C[C@H]1CCC2=Cc3c(cnn3-c3ccc(F)cc3)C[C@@]21C)S(=O)(=O)Cc1ccccc1C(=O)O [Example 182, 2-[({{[(4αR,5S)-1-(4-fluorophenyl)-4α-methyl-1,4,4α,5,6,7-hexahydrocyclopenta[f]indazol-5-yl]methyl}[(2R)-2-hydroxypropyl]amino}sulfonyl)methyl]benzoic acid] |
| 15 | 4500 | C[C@H](O)CN(C[C@H]1CCC2=Cc3c(cnn3-c3ccc(F)cc3)C[C@@]21C)S(=O)(=O)Cc1ccccc1C(=O)O [Example 183, 2-[({{[(4αR,5S)-1-(4-fluorophenyl)-4α-methyl-1,4,4α,5,6,7-hexahydrocyclopenta[f]indazol-5-yl]methyl}[(2S)-2-hydroxypropyl]amino}sulfonyl)methyl]benzoic acid] |
| 21.6 | 422 | C[C@@H](O)CN(C[C@H]1CCC2=Cc3c(cnn3-c3ccc(F)cc3)C[C@@]21C)S(=O)(=O)Cc1ccccc1C(N)=O [Example 184, 2-[({{[(4αR,5S)-1-(4-fluorophenyl)-4α-methyl-1,4,4α,5,6,7-hexahydrocyclopenta[f]indazol-5-yl]methyl}[(2R)-2-hydroxypropyl]amino}sulfonyl)methyl]benzamide] |
| 19.9 | 250 | C[C@H](O)CN(C[C@H]1CCC2=Cc3c(cnn3-c3ccc(F)cc3)C[C@@]21C)S(=O)(=O)Cc1ccccc1C(N)=O [Example 185, 2-[({{[(4αR,5S)-1-(4-fluorophenyl)-4α-methyl-1,4,4α,5,6,7-hexahydrocyclopenta[f]indazol-5-yl]methyl}[(2S)-2-hydroxypropyl]amino}sulfonyl)methyl]benzamide] |
| 55.4 | 303 | C[C@]12Cc3cnn(-c4ccc(F)cc4)c3C=C1CC[C@@H]2CN(CCCc1ccccc1)S(=O)(=O)CC(F)(F)F [Example 193, 2,2,2-trifluoro-N-{[(4αR,5S)-1-(4-fluorophenyl)-4α-methyl-1,4,4α,5,6,7-hexahydrocyclopenta[f]indazol-5-yl]methyl}-N-(3-phenylpropyl)ethanesulfonamide] |
